Here are results for five compounds from patent publication US20250281474A1, “PHARMACEUTICAL COMPOSITION FOR TREATING COGNITIVE DECLINE OR FOR TREATING OVERWEIGHTNESS OR OBESITY” (University of the Ryukyus, priority 2021, published 2025).

Like-named read-outs stand apart in the source and are kept apart here.

For test [1] the following is noted: Ca2+ indicator; cited from earlier work.
Test [2] deals with CP-AMPAR. Description: Ca2+ imaging of hippocampal brain slices, AMPA+CTZ application, ob/ob mice. It is filed as cell-based, mouse.
Test [3] deals with AMPAR (CP-AMPAR). The test is described as follows: Ca2+ imaging of hippocampal brain slices, AMPA+CTZ application (CP-AMPA reaction), HFD-fed mice. It is filed as cell-based. As to the method: First, the intracellular calcium concentration ([Ca^2+]i) was directly measured in an acute brain slice of the hippocampus having a perihippocampal region using a mouse obesity model associated with HFD feeding (composition of diet (7) shown in Table 1) for 12 weeks after weaning to track calcium signaling (FIG. 1A: supplementary data moving image 1) in the hippocampus. HFD-fed mice received […] containing 100 μM CTZ (cyclothiazide; […]) applied to EC (entorhinal cortex), CA1 (cornu ammonis 1), CA2, CA3, and DG (dentate gyrus). The F525 normalized before and after application was compared.

In test [4] the test system is NMDA receptor. Description: Ca2+-dependent inactivation of the NMDA receptor, Ca2+ imaging of brain slices. It counts as cell-based, mouse. To be noted: brain slices of mice fed HFD 2 weeks; 3 μM, 60 min; n=3.
Test [5] deals with NMDAR. Description: Ca2+ imaging of hippocampal brain slices, NMDA+glycine application, ob/ob mice. To be noted: ob/ob mice orally administered PER; leptin 100 nM.
The subject of test [6] is NMDAR. Description: Ca2+ imaging of hippocampal brain slices, NMDA+glycine application (NMDA reaction), HFD-fed mice. It is filed as cell-based, mouse. To be noted: HFD mice orally administered PER; leptin 100 nM.

`CC(=O)OCOC(=O)CN(CC(=O)OCOC(C)=O)c1ccc(C)cc1OCCOc1cc(-c2c3cc(Cl)c(=O)cc-3oc3cc(OCOC(C)=O)c(Cl)cc23)ccc1N(CC(=O)OCOC(C)=O)CC(=O)OCOC(C)=O` [Fluo-3 AM]: in test [1], the Kd was 400 nM. With `Cc1cn2c(n1)Cc1ccc(Cl)cc1C(c1ccc(N)cc1)=N2` [GYKI 47261], the “inhibitory effect on CP-AMPAR in EC, CA1, CA2, CA3, DG” value in test [2] (ob/ob mice slices, 100 μM, p<0.05 (FIG. 10-1A)) is “significant inhibitory effect”. As for `NCCCNCCCCNCCCNC(=O)Cc1cccc2ccccc12` [NASPM, N-[3-[[4-[(3-aminopropyl)amino]butyl]amino]propyl]-1-naphthaleneacetamide], the “inhibitory effect on CP-AMPAR in EC, CA1, CA2, CA3, DG” value in test [2] is given as “significant inhibitory effect”. Also, the “increase in [Ca2+]i via pathological AMPAR” value in test [3] is on record as “disappeared”.

On to `CC(=O)OCOC(=O)CN(CC(=O)OCOC(C)=O)c1ccccc1OCCOc1ccccc1N(CC(=O)OCOC(C)=O)CC(=O)OCOC(C)=O` [BAPTA-AM], for which the “inactivation of the NMDA receptor (reactivity to NMDA 50 μM and glycine 10 μM)” value in test [4] is recorded as “released the inactivation of the NMDA receptor”. In the case of “leptin: hormone that regulates energy expenditure”, the “function of NMDAR in EC, CA1, CA2, CA3, DG” value in test [5] and in test [6] was “significantly enhanced” in each case.
